Legend:
Type in all cases: in vivo, human
Settings in all cases: using only lidocaine
[1] = Anesthetic trial in middle area operations: liposuction in the abdomen
Description: The above components were dissolved in a small amount (<1 mL) of distilled water and mixed homogeneously, and the mixture was then diluted to 10 mL to yield the L.S.Z. solution.
10 bottles were filled each with 500 mL of normal saline solution. To each bottle was added 10 ml 2% lidocaine solution (as described in Example 1), and 1 mL of the L.S.Z. solution. The bottles were shaken respectively to mix well, yielding L.S.Z. anesthetic solution having a long duration of action.
[…] While injecting the anesthetic solution, liposuction was conducted using a liposuction tube, finally removing 3500 mL aspirated fat solution in total. The operation lasted 1 hour. When injecting, 3 injection points, the subcutaneous depth of 1-2 cm, and radiation injection around the injection point were chosen to form 3 anesthetic zones with a radius of 15 cm. After injection, the onset time shortened from the original about 1 min (using only lidocaine) down to about 5 sec, and the duration of analgesia prolonged from the original 4 hours (using only lidocaine) to about 9 days.

[2] = Anesthetic trial in large area operations: liposuction in the lower limb (buttock, thigh, calf)
Description: The above components were dissolved in a small amount (<1 mL) of distilled water and mixed homogeneously, and the mix was then diluted to 60 mL to yield the L.S.Z. solution.
20 bottles were filled each with 500 mL normal saline solution. To each bottle was added 15 mL of 2% lidocaine solution (as described in Example 1) and 3 mL of the L.S.Z. solution as prepared in this Example. The bottles were shaken respectively to mix well, yielding L.S.Z. anesthetic solution having a long duration of action.
[…] While injecting the anesthetic solution, liposuction was conducted using a liposuction tube, finally removing 6 L aspirated fat solution in total. The operation lasted for about 3 hours. When injecting, 8 injection points, the subcutaneous depth of 1-2 cm, and the radiation injection method around the injection point were chosen to form 8 anesthetic zones with a radius of 20 cm. After injection, the onset time shortened from the original about 1 min (using only lidocaine) down to around 5 sec, and the duration of analgesia prolonged from the original 4 hours (using only lidocaine) to about 9 days.

[3] = Anesthetic trial in general liposuction operations
Description: The above components were dissolved in a small amount (<1 mL) of distilled water and mixed homogeneously, and the mix was then diluted to 150 mL to yield the L.S.Z. solution.
50 bottles were filled each with 500 mL normal saline solution. […] The bottles were shaken respectively to mix well, yielding L.S.Z. anesthetic solution having a long duration of action.
Then, a common syringe with a 25 cm long needle was used to inject subcutaneously the above anesthetic solution in 45 sites of a […], 1.70 m in height, and 90 kg in weight. While injecting the anesthetic solution, liposuction was conducted using a liposuction tube, finally removing 18 L aspirated fat solution in total. The operation lasted for about 9 hours and the weight of the subject was reduced by 15 kg in total.

For CCN(CC)CC(=O)Nc1c(C)cccc1C [lidocaine], the duration of analgesia [1] was 4 h, the onset time [1] was “about 1 min” and the duration of analgesia [2] was 4 h. The onset time [2] was “about 1 min”, the duration of analgesia [3] was 4 h and the onset time [3] was “about 1 min”.

Source: patent publication US7928141B2 (priority 2005, dated 2011)
